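Growth conditions: 96-well plates. Treatment: test compound, 48 hours, 5 concentrations. Analysis: linear interpolation between bracketing concentrations; unreached endpoints set to highest concentration. GI50 is the concentration that inhibits growth by half. TGI: concentration producing complete growth inhibition.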 Where a SMILES comes first, the peptide text is derived from it. [ ]: non-standard residue; d: D form. The star is where a group is joined. NMeF = CN[CH](Cc1ccccc1)C(=O)O; NMeV = CN[CH](C(=O)O)C(C)C; Boc = CC(C)(C)OC(=O)*; OBn = c1ccc(CO*)cc1
Assays:
Experiment in all cases: DTP human tumour cell line panel, 48 h
M14 melanoma = tested on: M14 melanoma
A549 NSCLC = tested on: A549 NSCLC
A498 renal = tested on: A498 renal
KM12 colon = tested on: KM12 colon
HCT-116 colon = tested on: HCT-116 colon
COLO 205 colon = tested on: COLO 205 colon
UO-31 renal = tested on: UO-31 renal
HT29 colon = tested on: HT29 colon
EKVX NSCLC = tested on: EKVX NSCLC
CAKI-1 renal = tested on: CAKI-1 renal

Structure (SMILES)	GI50 (M14 melanoma) [nM]	TGI (M14 melanoma) [µM]	GI50 (A549 NSCLC) [µM]	TGI (A549 NSCLC) [µM]	GI50 (A498 renal) [nM]	TGI (A498 renal) [µM]	GI50 (KM12 colon) [µM]	TGI (KM12 colon) [µM]	GI50 (HCT-116 colon) [nM]	TGI (HCT-116 colon) [µM]	GI50 (COLO 205 colon) [µM]	TGI (COLO 205 colon) [µM]	GI50 (UO-31 renal) [nM]	TGI (UO-31 renal) [µM]	GI50 (HT29 colon) [µM]	TGI (HT29 colon) [µM]	TGI (EKVX NSCLC) [µM]	GI50 (CAKI-1 renal) [µM]	TGI (CAKI-1 renal) [µM]	GI50 (EKVX NSCLC) [µM]
O=C(O)c1cn(C2CC2)c2cc(N3CCN(S(=O)(=O)c4ccc(Cl)c(Cl)c4)CC3)c(F)cc2c1=O	4060	> 100	3.08	> 100	2910	> 100	3.62	> 100	3860	> 100	3.5	11.9	2580	> 100	3.77	> 100				
COc1cc2c(c3oc(-c4ccc5c(c4)OCO5)c(O)c(=O)c13)CCC(C)(C)O2		> 100		> 100		> 100		> 100				> 100		> 100		> 100	> 100			
Cc1cc(-c2ccccc2)c(C)n1Cc1ccc(Cl)cc1	3210	31.6	5.73	> 100	2210	47.9	4.26	> 100	3800	23.4	5.96	27.8	5450	> 100	3.28	17.6		3.66	> 100	
CC(=O)Nc1ccc(-c2nnc(SCC(=O)Nc3ccccc3[N+](=O)[O-])o2)cc1		> 100		> 100				> 100		> 100		> 100		> 100		> 100			> 100	
N=C(N)n1[nH]c2c(c1=O)CCC2		> 100		> 100						> 100		> 100		> 100		> 100			> 100	
COC(=O)c1[nH]nc(-c2ccccc2)c1N1CCCCC1	57000	> 100	43.6	> 100	17400	57.2	55.8	> 100			> 100	> 100	65400	> 100	57.9	> 100	73.3	62.4	87.8	23.7
COc1ccc(/C=C/c2nc(N3CCOCC3)c3cc(F)c(F)cc3n2)cc1OC	2750	26.8	5.87	> 100	3410	> 100	4.59	> 100	3530	> 100	3.47	20.7	3650	> 100				3.23	> 100	
CCCCNC(=S)/N=C/c1c(O)c2ccccc2oc1=O		> 100		> 100				> 100		> 100		> 100		> 100		> 100	> 100		> 100	
O=C1c2cnccc2Cc2cccc3c2N1c1ccccc1S3		58.8		> 100		69.8		66		33.8		59.2				74.8			32.6	
O=C1C=C(N2CC2)c2ccccc2C1=O	1630	3.04	2.07	4.7	1360	2.84	1.78	3.27	1470	2.9	2.01	3.49	1510	2.87	2.58	5.57				
CC1=C(C(=O)Nc2ccccc2C)C(c2ccc(N(C)C)cc2)C(C(=O)Nc2ccccc2C)=C(C)N1				> 100		> 100		> 100		> 100		> 100		> 100		> 100	> 100			
Cc1cc(N(CCCNc2ccnc3cc(Cl)ccc23)Cc2cccs2)nc(Cl)n1	1810	4.54	7.11	23.1	2160	11.7	4.16	17	1080	12.8	2.24	7.8	986	7.73	1.51	12.4	27.2			3.72
COc1ccc2oc(-c3ccncc3)cc(=O)c2c1		> 100				> 100		> 100		> 100		> 100		> 100		> 100			> 100	
CCC[CH2][Sn]1([CH2]CCC)[O]C(=O)C[S]1	2050	4.43	8.9	23.5			2.6	10.9	1910	4.49	1.75	4.11	2480	7.29	2.83	8.2	6.53	0.759	3.47	2.46
O=C(/C=C/c1cccs1)c1ccsc1		> 100		> 100		> 100		> 10				38		32.4		41.7	> 100		> 100	
CC(C)C(NC(=O)OC(C)(C)C)C(=O)N(C)C(Cc1ccccc1)C(=O)N(C)C(C(=O)N(C)C(C(=O)OCc1ccccc1)C(C)C)C(C)C (centres undefined) (Boc-V[NMeF][NMeV][NMeV]-OBn; configuration not given here)		> 100		> 100				> 100		> 100		> 100		> 100		> 100	> 100			
Cc1cc(C)cc(Nc2nccc(-c3c(-c4ccc(F)cc4)ncn3C3CCNCC3)n2)c1	1590	3.18	1.09	3.16			1.74	3.57	1130	2.36	1.41	3.21	692	2.15	0.78	2.43	3.19	1.24	2.72	1.4
COc1cc2c(cc1OCCCCCCNC(=O)c1cc3ccccc3[nH]1)N=CC1CCCN1C2=O (centres undefined)	65500	> 100	39	> 100	26300	64.2	34.8	> 100	45600	> 100	45.4	> 100	33900	> 100	41.8	> 100	65.4			14.4

Source: PubChem BioAssay (NCI)
